From patent US20050065187A1, “Novel antimicrobial aryloxazolidinone compounds” (priority 2003, published 2005)
≈ marks a conversion by molar mass, not a printed value. Where two headings read alike, the source gives them in different places.

How the values were obtained:
Test in all cases: Antibacterial assay (Test A), microtitration MIC
SPNE 9912 = assay type: cell-based, S. pneumoniae; conditions: Streptococcus pneumoniae, read-out: SPNE 9912 MIC
Method: (§1) Test A—Antibacterial Assays
(§2) The compounds of the present invention were tested against an assortment of Gram-negative and Gram-positive organisms using standard microtitration techniques (Cohen et. al., Antimicrob., 1985;28:766; Heifetz, et. al., Antimicrob., 1974;6:124).

MC 30603 = assay type: cell-based, M. catarrhalis; conditions: Moraxella catarrhalis, read-out: MC 30603 MIC
Method: as §1, §2

SAUR 9213 = assay type: cell-based, S. aureus; conditions: Staphylococcus aureus, read-out: SAUR 9213 MIC
Method: as §1, §2

HINF 30063 = assay type: cell-based, H. influenza; conditions: Minimum Inhibitory Concentration, strain HINF 30063
Method: as §1, §2

[1] = Minimum Inhibitory Concentration, strain SPNE 9912
[2] = Minimum Inhibitory Concentration, strain MC 30603
[3] = Minimum Inhibitory Concentration, strain SAUR 9213

Row | SMILES | MIC (SPNE 9912; [1]) [µg/mL] | MIC (MC 30603; [2]) [µg/mL] | MIC (SAUR 9213; [3]) [µg/mL] | MIC (HINF 30063) [µg/mL] | MIC (SPNE 9912) [µg/mL] | MIC (MC 30603) [µg/mL] | MIC (SAUR 9213) [µg/mL]
1 | O=C(NC[C@H]1CN(c2ccc(C3CCC(O)[C@@H](O)C3)cc2)C(=O)O1)C(F)F (stereo in doubt) [Example 14, N-{3-[4-(3,4-Dihydroxy-cyclohexyl)-phenyl]-2-oxo-oxazolidin-5-ylmethyl}-2,2-difluoro-acetamide] | 2 (≈ 5.2 µM) | 16 (≈ 41.6 µM) | 8 (≈ 20.8 µM) | 16 (≈ 41.6 µM) |  |  | 
2 | CCC(=O)NC[C@H]1CN(c2ccc(C3CCC(O)CC3)c(F)c2)C(=O)O1 (stereo in doubt) [Example 17, N-{3-[3-Fluoro-4-(4-hydroxy-cyclohexyl)-phenyl]-2-oxo-oxazolidin-5-ylmethyl}-propionamide] | 1 (≈ 2.74 µM) | 4 (≈ 11 µM) | 2 (≈ 5.49 µM) | 4 (≈ 11 µM) |  |  | 
3 | NC(=O)[C@H]1CN(c2ccc(C3CCC(=O)CC3)c(F)c2)C(=O)O1 [Example 24, 3-[3-Fluoro-4-(4-oxo-cyclohexyl)-phenyl]-2-oxo-oxazolidine-5-carboxylic acid amide] | 2 (≈ 6.24 µM) | 32 (≈ 99.9 µM) | 1 (≈ 3.12 µM) | 32 (≈ 99.9 µM) |  |  | 
4 | O=C(NC[C@H]1CN(c2ccc(C3CCC(O)[C@@H](O)C3)cc2)C(=O)O1)C(Cl)Cl (stereo in doubt) [Example 13, 2,2-Dichloro-N-{3-[4-(3,4-dihydroxy-cyclohexyl)-phenyl]-2-oxo-oxazolidin-5-ylmethyl}-acetamide] | 1 (≈ 2.4 µM) | 8 (≈ 19.2 µM) | 8 (≈ 19.2 µM) | 8 (≈ 19.2 µM) |  |  | 
5 | CC(=O)NC[C@H]1CN(c2ccc(N3CCC(=O)[C@@H](O)C3)c(F)c2)C(=O)O1 [Example 2, N-{3-[3-Fluoro-4-(3-hydroxy-4-oxo-piperidin-1-yl)-phenyl]-2-oxo-oxazolidin-5-ylmethyl}-acetamide] | 1 (≈ 2.74 µM) | 8 (≈ 21.9 µM) | 4 (≈ 10.9 µM) | 16 (≈ 43.8 µM) |  |  | 
6 | CC(=O)NC[C@H]1CN(c2ccc(C3CCC(=O)CC3)c(F)c2)C(=O)O1 [Example 20, N-{3-[3-Fluoro-4-(4-oxo-cyclohexyl)-phenyl]-2-oxo-oxazolidin-5-ylmethyl}-acetamide] | 0.5 (≈ 1.44 µM) | 8 (≈ 23 µM) | 2 (≈ 5.74 µM) | 16 (≈ 45.9 µM) |  |  | 
7 | CON=C1CCN(c2ccc(N3CC(CNC(C)=O)OC3=O)cc2F)CC1O (centres unmarked) [Example 4, N-{3-[3-Fluoro-4-(3-hydroxy-4-methoxyimino-piperidin-1-yl)-phenyl]-2-oxo-oxazolidin-5-ylmethyl}-acetamide] | 2 (≈ 5.07 µM) | 32 (≈ 81.1 µM) | 8 (≈ 20.3 µM) | 64 (≈ 162 µM) |  |  | 
8 | CC(=O)NC[C@H]1CN(c2ccc(C3CCC(O)C(F)C3)c(F)c2)C(=O)O1 (single isomer, unassigned) [Example 26, N-{3-[3-Fluoro-4-(3-fluoro-4-hydroxy-cyclohexyl)-phenyl]-2-oxo-oxazolidin-5-ylmethyl}-acetamide] | 0.5 (≈ 1.36 µM) | 8 (≈ 21.7 µM) | 2 (≈ 5.43 µM) | 16 (≈ 43.4 µM) |  |  | 
9 | CC(=O)NC[C@H]1CN(c2ccc(C3CC[C@@H](O)[C@@H](O)C3)cc2)C(=O)O1 (single isomer, unassigned) [Example 12, N-{3-[4-(3,4-Dihydroxy-cyclohexyl)-phenyl]-2-oxo-oxazolidin-5-ylmethyl}-acetamide] | 4 (≈ 11.5 µM) | 16 (≈ 45.9 µM) | 16 (≈ 45.9 µM) | 16 (≈ 45.9 µM) |  |  | 
10 | CCC(=O)NC[C@H]1CN(c2ccc(C3CCC(O)[C@@H](O)C3)c(F)c2)C(=O)O1 (stereo in doubt) [Example 8, N-{3-[4-(3,4-Dihydroxy-cyclohexyl)-3-fluoro-phenyl]-2-oxo-oxazolidin-5-ylmethyl}-propionamide] | 2 (≈ 5.26 µM) | 8 (≈ 21 µM) | 8 (≈ 21 µM) | 8 (≈ 21 µM) |  |  | 
11 | CC(=O)NC[C@H]1CN(c2ccc(N3CC/C(=N/O)[C@@H](O)C3)c(F)c2)C(=O)O1 (stereo in doubt) [Example 3, N-{3-[3-Fluoro-4-(3-hydroxy-4-hydroxyimino-piperidin-1-yl)-phenyl]-2-oxo-oxazolidin-5-ylmethyl}-acetamide] | 2 (≈ 5.26 µM) | 16 (≈ 42.1 µM) | 8 (≈ 21 µM) | 16 (≈ 42.1 µM) |  |  | 
12 | CC(=O)NC[C@H]1CN(c2ccc(C3CCC(O)CC3)c(F)c2)C(=O)O1 (stereo in doubt) [Example 16, N-{3-[3-Fluoro-4-(4-hydroxy-cyclohexyl)-phenyl]-2-oxo-oxazolidin-5-ylmethyl}-acetamide] | 1 (≈ 2.85 µM) | 4 (≈ 11.4 µM) | 2 (≈ 5.71 µM) | 8 (≈ 22.8 µM) |  |  | 
13 | CC(=O)NC[C@H]1CN(c2ccc([C@@H]3CCC(=O)[C@@H](O)C3)c(F)c2)C(=O)O1 (stereo in doubt) [Example 25, N-{3-[3-Fluoro-4-(3-hydroxy-4-oxo-cyclohexyl)-phenyl]-2-oxo-oxazolidin-5-ylmethyl}-acetamide] |  |  |  | 16 (≈ 43.9 µM) | 2 (≈ 5.49 µM) | 8 (≈ 22 µM) | 2 (≈ 5.49 µM)
14 | O=C1CCN(c2ccc(N3C[C@H](Cn4ccnn4)OC3=O)cc2F)C[C@@H]1O [Example 6, 1-[2-Fluoro-4-(2-oxo-5-[1,2,3]triazol-1-ylmethyl-oxazolidin-3-yl)-phenyl]-3-hydroxy-piperidin-4-one] | 1 (≈ 2.66 µM) | 8 (≈ 21.3 µM) | 4 (≈ 10.7 µM) | 64 (≈ 171 µM) |  |  | 
15 | O=C1O[C@@H](CNC(=S)C(F)F)CN1c1ccc(C2CCC(O)[C@@H](O)C2)c(F)c1 (stereo in doubt) [Example 11, N-{3-[4-(3,4-Dihydroxy-cyclohexyl)-3-fluoro-phenyl]-2-oxo-oxazolidin-5-ylmethyl}-2,2-difluoro-thioacetamide] | 0.5 (≈ 1.19 µM) | 4 (≈ 9.56 µM) | 1 (≈ 2.39 µM) | 8 (≈ 19.1 µM) |  |  | 
16 | O=C(NC[C@H]1CN(c2ccc(C3CCC(O)[C@@H](O)C3)c(F)c2)C(=O)O1)C(Cl)Cl (stereo in doubt) [Example 9, 2,2-Dichloro-N-{3-[4-(3,4-dihydroxy-cyclohexyl)-3-fluoro-phenyl]-2-oxo-oxazolidin-5-ylmethyl}-acetamide] | 1 (≈ 2.3 µM) | 4 (≈ 9.19 µM) | 4 (≈ 9.19 µM) | 4 (≈ 9.19 µM) |  |  | 
17 | O=C1O[C@@H](Cn2ccnn2)CN1c1ccc(N2CC[C@@H](O)[C@@H](O)C2)c(F)c1 (stereo in doubt) [Example 5, 3-[4-(3,4-Dihydroxy-piperidin-1-yl)-3-fluoro-phenyl]-5-[1,2,3]triazol-1-ylmethyl-oxazolidin-2-one] | 1 (≈ 2.65 µM) | 16 (≈ 42.4 µM) | 4 (≈ 10.6 µM) | 32 (≈ 84.8 µM) |  |  | 
18 | O=C1O[C@@H](CNC(=S)C(F)F)CN1c1ccc(C2CCC(O)[C@@H](O)C2)cc1 (stereo in doubt) [Example 15, N-{3-[4-(3,4-Dihydroxy-cyclohexyl)-phenyl]-2-oxo-oxazolidin-5-ylmethyl}-2,2-difluoro-thioacetamide] | 1 (≈ 2.5 µM) | 8 (≈ 20 µM) | 4 (≈ 9.99 µM) | 16 (≈ 40 µM) |  |  | 
19 | CON=C1CCC(c2ccc(N3C[C@H](CNC(C)=O)OC3=O)cc2F)CC1 (some centres unmarked) [Example 22, N-{3-[3-Fluoro-4-(4-methoxyimino-cyclohexyl)-phenyl]-2-oxo-oxazolidin-5-ylmethyl}-acetamide] | 1 (≈ 2.65 µM) | 1 (≈ 2.65 µM) | 2 (≈ 5.3 µM) | 32 (≈ 84.8 µM) |  |  | 
20 | O=C(NC[C@H]1CN(c2ccc(C3CCC(O)CC3)c(F)c2)C(=O)O1)C(F)F (stereo in doubt) [Example 18, 2,2-Difluoro-N-{3-[3-fluoro-4-(4-hydroxy-cyclohexyl)-phenyl]-2-oxo-oxazolidin-5-ylmethyl}-acetamide] | 0.5 (≈ 1.29 µM) | 4 (≈ 10.4 µM) | 2 (≈ 5.18 µM) | 8 (≈ 20.7 µM) |  |  | 
21 | NC(=O)[C@H]1CN(c2ccc(C3CCC(O)CC3)c(F)c2)C(=O)O1 (stereo in doubt) [Example 23, 3-[3-Fluoro-4-(4-hydroxy-cyclohexyl)-phenyl]-2-oxo-oxazolidine-5-carboxylic acid amide] | 1 (≈ 3.1 µM) | 16 (≈ 49.6 µM) | 2 (≈ 6.2 µM) | 64 (≈ 199 µM) |  |  | 
22 | CC(=O)NC[C@H]1CN(c2ccc(N3CC[C@@H](O)[C@@H](O)C3)c(F)c2)C(=O)O1 (stereo in doubt) [Example 1, N-{3-[4-(3,4-Dihydroxy-piperidin-1-yl)-3-fluoro-phenyl]-2-oxo-oxazolidin-5-ylmethyl}-acetamide] |  |  |  | 32 (≈ 87.1 µM) | 2 (≈ 5.44 µM) | 8 (≈ 21.8 µM) | 8 (≈ 21.8 µM)
23 | O=C1O[C@@H](CNC(=S)C(F)F)CN1c1ccc(C2CCC(O)CC2)c(F)c1 (some centres unmarked) [Example 19, 2,2-Difluoro-N-{3-[3-fluoro-4-(4-hydroxy-cyclohexyl)-phenyl]-2-oxo-oxazolidin-5-ylmethyl}-thioacetamide] | 0.5 (≈ 1.24 µM) | 2 (≈ 4.97 µM) | 2 (≈ 4.97 µM) | 8 (≈ 19.9 µM) |  |  | 
24 | CC(=O)NC[C@H]1CN(c2ccc(C3CCC(=NO)CC3)c(F)c2)C(=O)O1 (some centres unmarked) [Example 21, N-{3-[3-Fluoro-4-(4-hydroxyimino-cyclohexyl)-phenyl]-2-oxo-oxazolidin-5-ylmethyl}-acetamide] | 0.5 (≈ 1.38 µM) | 8 (≈ 22 µM) | 1 (≈ 2.75 µM) | 16 (≈ 44 µM) |  |  | 
25 | CCC(=O)NC[C@H]1CN(c2ccc(C3CCC(O)C(F)C3)c(F)c2)C(=O)O1 (single isomer, unassigned) [Example 27, N-{3-[3-Fluoro-4-(3-fluoro-4-hydroxy-cyclohexyl)-phenyl]-2-oxo-oxazolidin-5-ylmethyl}-propionamide] | 0.25 (≈ 0.654 µM) | 2 (≈ 5.23 µM) | 2 (≈ 5.23 µM) | 8 (≈ 20.9 µM) |  |  | 
26 | O=C(NC[C@H]1CN(c2ccc(C3CCC(O)[C@@H](O)C3)c(F)c2)C(=O)O1)C(F)F (stereo in doubt) [Example 10, N-{3-[4-(3,4-Dihydroxy-cyclohexyl)-3-fluoro-phenyl]-2-oxo-oxazolidin-5-ylmethyl}-2,2-difluoro-acetamide] | 1 (≈ 2.49 µM) | 4 (≈ 9.94 µM) | 4 (≈ 9.94 µM) | 8 (≈ 19.9 µM) |  |  | 
